US20080287445A1, “Prokineticin 2 receptor antagonists” (priority 2005, published 2008)
Several values for one entry are separate records, joined by “and”; a condition that tells them apart may be missing. Equal values may be shown once.

Molecular target: T1, GPR73 (prokineticin 1 receptor) (Homo sapiens, UniProt Q8TCW9)
T1 construct: expressed in transfected cells; host or cells: HEK 293
Assay: PK1 functional assay: Ca2+ mobilization screening for PK1 antagonists on the FLIPR
Format: cell-based
Conditions: HEK 293 GPR73 cells, multiple values = multiple testing; for inhibition at 10 µM: HEK293, 10 μM compound, read-out: Ca^2+ Mobilization % Inh @ 10 μM; for IC50: PK1 ligand preparation at its EC50, read-out: Ca^2+ Mobilization IC50; for Ca^2+ Mobilization % Inh @ 10 μM: 10 μM compound
Description: At a time of 24 h prior to running the assay, in cell culture media (DMEM containing high Glucose and L-glutamine, 10% FBS, 1% Pen/Streptomycin, 1% Sodium Pyruvate, 20 mM HEPES, Zeocin 200 mg/L), 100 μL of 1.3*10^6/ml HEK 293 GPR73 (prokineticin 1 receptor) expressing cells were plated in a 96 well poly-d-lysine coated plate (Costar), and incubated at 37 C and 5% CO2. On the day in which the assay was run, the media was removed and 200 μL of 5× Calcium Plus Dye (Molecular Devices) which was previously resuspended with 200 mL of assay buffer [HBSS w/Ca^2+ and Mg^2+ w/o phenol red, 20 mM HEPES, 0.1% BSA, 10 mL probenecid (710 mg probenecid in 5 mL of 1N NaOH, to which was then added 5 mL HBSS containing 20 mM HEPES)] was added to each well of the 96-well plate. The plate was incubated at 37 C and 5% CO2 for 30 min in dark. The plate was removed and allowed to reach RT for 15 min in the dark. The assay was then run on the FLIPR. In Brief: base line read for 1 min, compound added (25 μL) and incubated for 4 min, 15 seconds, PK1 ligand preparation added (25 μL) for a final concentration of a previously determined EC50 and fluorescence was counted for 1 min, 45 seconds. Baseline is described as the amount of relative fluorescence read when buffer alone is added to cells. Baseline was subtracted from all wells. Percent of control was calculated as follows:
(Baseline subtracted well value is divided by baseline subtracted max value)*100. Percent inhibition is 100 minus the percent of control value.
The IC50 is defined as the amount of a given compound required to inhibit 50% of the maximum signal that is generated by the concentration of PK1 preparation used in our assay. IC50 values were calculated using GraphPad Prism.

T1 sequence (Q8TCW9 whole entry, species assumed): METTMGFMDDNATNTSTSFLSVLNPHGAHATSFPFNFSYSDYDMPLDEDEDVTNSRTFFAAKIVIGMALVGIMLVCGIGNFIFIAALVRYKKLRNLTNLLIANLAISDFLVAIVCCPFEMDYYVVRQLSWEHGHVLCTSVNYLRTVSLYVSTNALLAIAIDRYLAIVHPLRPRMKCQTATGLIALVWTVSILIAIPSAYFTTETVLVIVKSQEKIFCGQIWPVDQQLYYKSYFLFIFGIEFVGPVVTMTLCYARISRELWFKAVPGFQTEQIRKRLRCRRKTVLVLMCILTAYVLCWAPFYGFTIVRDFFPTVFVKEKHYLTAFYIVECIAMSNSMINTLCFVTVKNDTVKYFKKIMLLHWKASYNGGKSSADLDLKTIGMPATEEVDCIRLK

inhibition at 10 µM | IC50 | Ca^2+ Mobilization % Inh @ 10 μM | SMILES
37% | > 10000 nM | – | COc1ccc(Cn2c(NCCc3ccccn3)nc(=O)n(Cc3ccc(Cl)c(Cl)c3)c2=O)cc1 [Cpd 1]
47% | > 10000 nM | – | COc1ccc(Cn2c(NCc3cccnc3)nc(=O)n(Cc3ccc(Cl)c(Cl)c3)c2=O)cc1 [Cpd 2]
94% | 357 nM | – | COc1ccc(Cn2c(NCc3ccc(N)cn3)nc(=O)n(Cc3ccc(Cl)cc3)c2=O)cc1 [Cpd 4]
81% | 1120 nM | – | COc1ccc(Cn2c(NCc3ccc(N)nc3)nc(=O)n(Cc3ccc(Cl)cc3)c2=O)cc1 [Cpd 5]
90% | 176 nM | – | COc1ccc(Cn2c(NCc3cncnc3N)nc(=O)n(Cc3ccc(OC)cc3)c2=O)cc1 [Cpd 6]
60% | 6200 nM | – | COc1ccc(Cn2c(CNCc3cccnc3N)cc(=O)n(Cc3ccc(OC)cc3)c2=O)cc1 [Cpd 7, 6-{[(2-Amino-pyridin-3-ylmethyl)-amino]-methyl}-1,3-bis-(4-methoxy-benzyl)-1H-pyrimidine-2,4-dione]
89% | 535 nM and 669 nM | 86% | COc1ccc(Cn2c(NCc3cccnc3N)nc(=O)n(Cc3ccc(F)cc3)c2=O)cc1 [Cpd 8]
95% | 295 nM | – | COc1ccc(Cn2c(NCc3cc4ccccc4nc3N)nc(=O)n(Cc3ccc(OC)cc3)c2=O)cc1 [Cpd 9]
82% | 1250 nM | – | COc1ccc(Cn2c(NCCc3cccnc3N)nc(=O)n(Cc3ccc(F)cc3)c2=O)cc1 [Cpd 10]
54% | 6790 nM | – | COc1ccc(Cn2c(NCc3cccnc3N3CCCC3)nc(=O)n(Cc3ccc(F)cc3)c2=O)cc1 [Cpd 11]
74% | 1290 nM | – | COc1ccc(Cn2c(NCc3cccnc3N3CCNCC3)nc(=O)n(Cc3ccc(OC)cc3)c2=O)cc1 [Cpd 12]
72% | 544 nM | – | COc1ccc(Cn2c(NCc3cccnc3N3CCCCC3)nc(=O)n(Cc3ccc(OC)cc3)c2=O)cc1 [Cpd 13]
90% | 793 nM | – | CNc1ncccc1CNc1nc(=O)n(Cc2ccc(F)cc2)c(=O)n1Cc1ccc(OC)cc1 [Cpd 14]
95% | 327 nM | – | CCCNc1ncccc1CNc1nc(=O)n(Cc2ccc(F)cc2)c(=O)n1Cc1ccc(OC)cc1 [Cpd 15]
89% | 348 nM | – | CCCCNc1ncccc1CNc1nc(=O)n(Cc2ccc(F)cc2)c(=O)n1Cc1ccc(OC)cc1 [Cpd 16]
73% | 2430 nM | – | COc1ccc(Cn2c(NCc3cccnc3N3CCOCC3)nc(=O)n(Cc3ccc(F)cc3)c2=O)cc1 [Cpd 17]
58% | 5480 nM | – | COc1ccc(Cn2c(NCc3cccnc3N3CCSCC3)nc(=O)n(Cc3ccc(F)cc3)c2=O)cc1 [Cpd 18]
83% | 885 nM | – | CCNc1ncccc1CNc1nc(=O)n(Cc2ccc(F)cc2)c(=O)n1Cc1ccc(OC)cc1 [Cpd 19]
95% | 177 nM | – | COc1ccc(Cn2c(NCc3cccnc3N3CCOCC3)nc(=O)n(Cc3ccc(OC)cc3)c2=O)cc1 [Cpd 20]
85% | 656 nM | – | COc1ccc(Cn2c(NCc3ccc4c(n3)NCCC4)nc(=O)n(Cc3ccc(F)cc3)c2=O)cc1 [Cpd 21, 3-(4-Fluoro-benzyl)-1-(4-methoxy-benzyl)-6-[(5,6,7,8-tetrahydro-[1,8]naphthyridin-2-ylmethyl)-amino]-1H-[1,3,5]triazine-2,4-dione]
88% | – | 96% and 97% | COc1ccc(Cn2c(NCc3cnc(C)cc3C)nc(=O)n(Cc3ccc(OC)cc3)c2=O)cc1 [Cpd 22, 6-[(4,6-Dimethyl-pyridin-3-ylmethyl)-amino]-1,3-bis-(4-methoxy-benzyl)-1H-[1,3,5]triazine-2,4-dione]
97% | 231 nM | – | COc1ccc(Cn2c(NCc3cccnc3N)nc(=O)n(Cc3cc4ccccc4o3)c2=O)cc1 [Cpd 23]
60% | 115 nM | – | COc1ccc(Cn2c(NCc3cccnc3N)nc(=O)n(Cc3ccc(SC)cc3)c2=O)cc1 [Cpd 24]
89% | 2740 nM | – | COc1ccc(Cn2c(NCc3ccc(-c4ccc(F)cc4)nc3)nc(=O)n(Cc3ccc(OC)cc3)c2=O)cc1 [Cpd 25]

inhibition at 10 µM | IC50 | Ca^2+ Mobilization % Inh @ 10 μM | SMILES
84% | 45 nM | – | COc1ccc(Cn2c(NCc3cccnc3N)cc(=O)n(Cc3ccc(OC)cc3)c2=O)cc1 [Cpd 26]
102% | 88 nM | – | COc1ccc(Cn2c(NCc3cccnc3NCCN(C)C)nc(=O)n(Cc3ccc(F)cc3)c2=O)cc1 [Cpd 27]
85% | – | 90% and 91% | COCCNc1ncccc1CNc1nc(=O)n(Cc2ccc(F)cc2)c(=O)n1Cc1ccc(OC)cc1 [Cpd 28, 3-(4-Fluoro-benzyl)-1-(4-methoxy-benzyl)-6-{[2-(2-methoxy-ethylamino)-pyridin-3-ylmethyl]-amino}-1H-[1,3,5]triazine-2,4-dione]
111% | 110 nM | – | COc1ccc(Cn2c(NCc3cccnc3NCCO)nc(=O)n(Cc3ccc(F)cc3)c2=O)cc1 [Cpd 29]
68% | 1240 nM | – | COc1ccc(Cn2c(NCc3cccnc3NCCN)nc(=O)n(Cc3ccc(F)cc3)c2=O)cc1 [Cpd 30]
91% | 939 nM | – | COc1ccc(Cn2c(NCc3cccnc3NC3CCCCC3)nc(=O)n(Cc3ccc(F)cc3)c2=O)cc1 [Cpd 31]
78% | 1220 nM | – | COc1ccc(Cn2c(NCc3ccc[n+]([O-])c3N)nc(=O)n(Cc3ccc(OC)cc3)c2=O)cc1 [Cpd 32]
95% | 49 nM and 77 nM | 102% | COc1ccc(Cn2c(=O)nc(NCc3cccnc3N)n(Cc3ccc(O)cc3)c2=O)cc1 [Cpd 33, 6-[(2-Amino-pyridin-3-ylmethyl)-amino]-1-(4-hydroxy-benzyl)-3-(4-methoxy-benzyl)-1H-[1,3,5]triazine-2,4-dione]
98% | 81 nM | – | CCCNc1ncccc1CNc1nc(=O)n(Cc2ccc(OC)cc2)c(=O)n1Cc1ccc(OC)cc1 [Cpd 34]
85% | 34 nM | – | COc1ccc(Cn2c(=O)nc(NCc3cccnc3N)n(Cc3ccc(OC(F)F)cc3)c2=O)cc1 [Cpd 35, 6-[(2-Amino-pyridin-3-ylmethyl)-amino]-1-(4-difluoromethoxy-benzyl)-3-(4-methoxy-benzyl)-1H-[1,3,5]triazine-2,4-dione]
84% | 270 nM | – | COC(=O)c1ccc(Cn2c(NCc3cccnc3N)nc(=O)n(Cc3ccc(OC)cc3)c2=O)cc1 [Cpd 36]
86% | 250 nM | – | COc1ccc(Cn2c(=O)nc(NCc3cccnc3N)n(Cc3ccc(NC(C)=O)cc3)c2=O)cc1 [Cpd 37]
91% | 391 nM | – | COc1ccc(Cn2c(=O)nc(NCc3cccnc3N)n(Cc3ccc(OC(F)(F)F)cc3)c2=O)cc1 [Cpd 38]
92% | 63 nM and 82 nM | 95% | COc1ccc(Cn2c(NCc3ccccn3)nc(=O)n(Cc3ccc(OC)cc3)c2=O)cc1 [Cpd 39]
72% | 1060 nM | – | COc1ccc(Cn2c(NCc3ccncc3)nc(=O)n(Cc3ccc(OC)cc3)c2=O)cc1 [Cpd 41]
49% | > 10000 nM | – | COc1ccc(Cn2c(NCc3cccnc3N)nc(=O)n(Cc3cccc(OC)c3)c2=O)cc1 [Cpd 42]
78% | 801 nM | – | COc1ccc(Cn2c(NCc3cccnc3N)nc(=O)n(Cc3ccccc3)c2=O)cc1 [Cpd 43]
66% | 2020 nM | – | COc1ccc(Cn2c(NCc3cccnc3N)nc(=O)n(Cc3ccc(C#N)cc3)c2=O)cc1 [Cpd 44]
40% | > 10000 nM | – | COc1ccc(Cn2c(NCc3cccnc3N)nc(=O)n(Cc3ccc(OC(F)(F)F)cc3)c2=O)cc1 [Cpd 45]
80% | 522 nM | – | CCOc1ccc(Cn2c(=O)nc(NCc3cccnc3N)n(Cc3ccc(OC)cc3)c2=O)cc1 [Cpd 46]
80% | 826 nM | – | COc1ccc(Cn2c(NCc3cccnc3N)nc(=O)n(Cc3ccc([N+](=O)[O-])cc3)c2=O)cc1 [Cpd 47]
75% | 956 nM | – | C=CCC(c1ccc(OC)cc1)n1c(=O)nc(NCc2cccnc2N)n(Cc2ccc(OC)cc2)c1=O (stereo not shown) [Cpd 48]
64% | 3170 nM | – | COc1ccc(Cn2c(NCc3cccnc3N)nc(=O)n(Cc3ccc(C(F)(F)F)cc3)c2=O)cc1 [Cpd 49]
